# Laboratory results: patent publication US5141929A, “Lipophilic ethers and/or esters of D-desosamine and their compositions as anti-bacteria and anti-fungus agents” (Societe Anonyme dite: L'Oreal, priority 1988, dated 1992)
# Like-named read-outs stand apart in the source and are kept apart here.
# Tests used:
# P37 E⊕ (sensitive) = assay: MIC by dilution method, erythromycin-sensitive P. acnes strain P37 E⊕; assay type: cell-based, propionibacterium acnes; details: for MIC: Cutibacterium acnes, read-out: minimum inhibiting concentration (MIC), P37 E⊕ (sensitive)
# Source text: (§1) The activity of the esters and/or ethers of D-desosamine has been studied by the dilution method to determine the minimum inhibiting concentration (MIC) This method is described and employed by G.A. Denys et al, Antimicrobial Agents and Chemotherapy (1983) 23, 335-337 and J.J. Leyden et al, J. Am. Acad. Dermatol. (1983) 8 (1) 41-5, by using as the procionibacterium acnes strain, strain P37 furnished by Cunliffe and Holland.
# (§2) On the other hand, after 8 successive sub-cultures in the same medium (RCM* 19/20, DMSO […] by volume) with the view of obtaining a progressive stabilization of this strain in this medium, a progressive resistance to erythromycin was manifested in the following form:
# (§3) after spreading a standardized inoculum (DO=1.8 at 450 nm) on a gelose medium (RCM+furazolidone), in a Petri dish, a 9 mm diameter disc is deposited at its center. On the disc, 50 μg of erythromycin (in solution in DMSO) are deposited.
# (§4) After 6 days at 36° C. in an anerobic medium (GAS-PAK, B.B.L. system) an inhibition zone of the growth of the strain is clearly visible (total diameter=42 mm), the majority of the colonies being situated at the periphery of the inhibition zone.
# (§5) The two types of colonies are then retained by stripping of the gelose medium (sterilized platinum loop):
# (2) at 1 cm beyond the periphery of the inhibition zone, there are stripped off strains called P37 E⊕.
# (§6) After isolation and culturing, the P37 E⊕ and P37 E⊖ strains effectively show very different sensitivities to erythromycin as illustrated by the following respective MIC values.
# (§7) The minimum inhibiting concentration (MIC), expressed in μg/ml of the esters and/or ethers of D-desosamine tested vis-a-vis strains of propionibacterium Acnes P37, P37E⊕ and P37E⊖ and staphilococcus epidermidis ATCC 12228, is reported in the following Table I.
# P37 E⊖ (resistant) = assay: MIC by dilution method, erythromycin-resistant P. acnes strain P37 E⊖; assay type: cell-based, propionibacterium acnes; details: for MIC: Cutibacterium acnes, read-out: minimum inhibiting concentration (MIC), P37 E⊖ (resistant)
# Source text: as §1, §2, §3, §4, §5
# (1) at the interior of the inhibition zone there are stripped off strains, called P37 E⊖ by reason of their apparent resistance to erythromycin.
# as §6, §7
# [1] = tested on: staphilococcus epidermidis ATCC 12228; assay: MIC by dilution method, staphilococcus epidermidis ATCC 12228; assay type: cell-based; details: Table I; for MIC: read-out: minimum inhibiting concentration (MIC), ATCC 12228
# Source text: as §1, §7
# [2] = tested on: propionibacterium Acnes P37; assay: MIC by dilution method, Propionibacterium acnes strain P37; assay type: cell-based; details: Table I, P. acnes P37; for MIC: Cutibacterium acnes, ACNESP37, read-out: minimum inhibiting concentration (MIC), P37
# Source text: as §1
# This P37 strain has been the object of studies described in the following publications:
# as §7
# [3] = Table I, erythromycin-sensitive
Molecule,MIC (P37 E⊕ (sensitive); [3]) [µg/mL],MIC (P37 E⊖ (resistant)) [µg/mL],MIC [1] [µg/mL],MIC [2] [µg/mL],"minimum inhibiting concentration (MIC), P37 E⊕ (sensitive) (P37 E⊕ (sensitive); [3]) [µg/mL]","minimum inhibiting concentration (MIC), P37 E⊖ (resistant) (P37 E⊖ (resistant); Table I, erythromycin-resistant) [µg/mL]","minimum inhibiting concentration (MIC), ATCC 12228 [1] [µg/mL]","minimum inhibiting concentration (MIC), P37 [2] [µg/mL]",MIC (P37 E⊕ (sensitive)) [µg/mL]
"CCCCCCCCO[C@@H]1O[C@H](C)C[C@H](N(C)C)[C@H]1OCCCCCCCC [Compound 16, di-O-octyl-1,2-β-D-desosamine]",0.3,0.15,1.2,0.7,,,,,
CCCCCCCCCCCO[C@H]1[C@@H](OCCCCCCCCCC)O[C@H](C)C[C@@H]1N(C)C [Compound 12],1,0.8,0.8,1.8,,,,,
"CCCCCCCCO[C@H]1O[C@H](C)C[C@H](N(C)C)[C@H]1OCCCCCCCC [Compound 15, di-O-octyl-1,2-α-D-desosamine]",1,0.4,0.3,1.8,,,,,
O-dodecanoyl-2'-erythralosamine [Compound 18],,,,,12.5,0.4,1.5,0.4,
CCCCCCCCCCCO[C@H]1[C@H](OCCCCCCCCCC)O[C@H](C)C[C@@H]1N(C)C [Compound 13],0.5,0.02,0.06,1,,,,,
"CCCCC/C=C\C/C=C\CCCCCCCC(=O)O[C@H]1[C@@H](OCCCC)O[C@H](C)C[C@@H]1N(C)C [Compound 7, O-linoleoyl-2-O-butyl-1-α-D-desosamine]",1.1,,1.1,0.15,,,,,
CCCCCCCCCCCO[C@H]1C(OCCCCCCCCCC)O[C@H](C)C[C@@H]1N(C)C (some centres unmarked) [Compound 11],0.7,0.8,0.7,4,,,,,
"CCCCCCCCCCCCCCCCCCO[C@H]1[C@@H](OCCCC)O[C@H](C)C[C@@H]1N(C)C [Compound 9, O-octadecyl-2-O-butyl-1-α-D-desosamine]",,27.5,0.8,0.1,,,,,27.5
"CCCCCCCCCCCC(=O)O[C@H]1C(OCCCC)O[C@H](C)C[C@@H]1N(C)C (stereo partly drawn) [Compound 2, O-dodecanoyl-2-O-butyl-1-α,β-D-desosamine]",0.6,0.9,3.5,0.4,,,,,
"CCCCCCCCCCCCC(CCCCCCCCCC)CO[C@H]1C(OCCCC)O[C@H](C)C[C@@H]1N(C)C (stereo partly drawn) [Compound 17, O-(2-decyl)-tetradecyl-2-O-butyl-1-α,β-D-desosamine]",11,6,,12.5,,,,,
